Where “and” joins values, the source holds several entries; their conditions need not be identical. Identical values can stand only once.
Key:
[1] = Face mask inhalation in beagle dogs: hematology; assay type: in vivo; details: inhalation Day 0 and Day 7, successive samplings
Procedure: Once adequately conditioned to the restraint device and face-masks, the animals are individually exposed to the test article aerosols. Animals receive a single face-mask inhalation exposure in a ramp study design to test article aerosols for up to 60 min. Animal observations during and post exposure determine the tolerance of inhaled BisEDT aerosols.
Group 1 (vehicle) are exposed to a vehicle atmosphere for 30 minutes. Group 2 (50 μg/kg) are exposed to BisEDT for 30 minutes. Target concentrations and exposure durations for Groups 3-5 are based on the presence of any toxicity via clinical observations or gross necropsy findings. In each of Groups 3-5, if no adverse clinical signs of toxicity are observed, the next groups' exposure will be conducted at a higher target dose. If adverse clinical signs of toxicity are observed, the next groups' exposure will be conducted at a lower target dose. This approach is repeated for all BisEDT doses. The final documented exposure duration is the maximum tolerated dose or the maximum feasible dose.
The aerosol generation system couples a commercially available compressed air jet nebulizer to a chamber that allows the aerosols to transition to the animals. […]
Hematology samples are analyzed by automated (ADVIA™ 120 Hematology System, Siemens Medical Solutions Diagnostics, Tarrytown, N.Y.) analyses. Disposition will be recorded on the sample processing form.

[2] = Particle size distribution of exposure aerosols (In-Tox Mercer Impactor); details: rat efficacy study exposure atmospheres
M. avium = assay: MIC against CF bacterial strains (Example 5); assay type: cell-based, Mycobacterium avium
Procedure: A range of CF-isolated strains of Mycobacterium avium and Mycobacterium abscessus were included; which allows for understanding of the activity against non-tubercular Mycobacteria (NTM). Two distinct bismuth-thiol compounds were evaluated, including BisEDT and BisBDT. […] The CF-isolates of greater clinical relevance, including both M abscessus spp. and Burkholderia spp., were both consistently found to be much more susceptible to BisEDT and BisBDT.

[3] = system: vancomycin-intermediate Staphylococcus aureus (VISA); assay: Broth microdilution MIC (Example 12); details: Staphylococcus aureus

Structure (SMILES)	LUC ([1]; dog Group 2, lung deposited 55-56 ug/kg, lines = animal 2001, 2002 or Grp Avg)	LUC ([1]; dog Group 4, lung deposited 176-197 ug/kg, lines = animal 4001-4004 or Grp Avg)	MMAD of exposure aerosol [2]	MIC (M. avium; Mycobacterium avium)	MIC (M. avium; strain MAC101, MAC reference strain, blood isolate from HIV patient)	MIC ([3]; NRS1 / VISA)	MIC ([3]; NRS2 / VISA)	MIC ([3]; NRS3 / VISA)	MIC ([3]; NRS4 / VISA)	MIC ([3]; NRS13 / VISA)	MIC ([3]; NRS18 / VISA)	MIC ([3]; NRS22 / VISA)	MIC ([3]; NRS24 / VISA)	MIC ([3]; NRS27 / VISA)
C1C[S][Bi]([S]CC[S][Bi]2[S]CC[S]2)[S]1 [BisEDT, bismuth-1,2-ethanedithiol]	0.01 ^3/uL and 0.02 ^3/uL	0.01 ^3/uL and 0.02 ^3/uL	1.54 μm											
CC(S)C(C)S.[Bi] (centres unmarked) [BisBDT, bismuth-2,3-butanedithiol]				> 16 µg/mL	1 µg/mL	0.12 µg/mL	≤ 0.06 µg/mL	0.25 µg/mL	0.25 µg/mL	0.12 µg/mL	0.25 µg/mL	0.25 µg/mL	1 µg/mL	0.25 µg/mL

— patent US11464749B2, “Bismuth-thiol compositions and methods of use” (Microbion Corporation, priority 2018, dated 2022)
